# From patent publication US20210253642A1, “CALPAIN MODULATORS AND THERAPEUTIC USES THEREOF BACKGROUND” (Blade Therapeutics, Inc., priority 2018, published 2021)
# Columns and labels:
# [1] = from CC(C)[C@H](NC(=O)CC(Sc1ccccc1)[C@H](COC(=O)[C@@H](N)Cc1ccc(O[Si](C)(C)C(C)(C)C)cc1)NC(=O)OC(C)(C)C)C(=O)O; amide bond; FDPP; DMF; 6.97 mM; 20.0 °C; 8.0 h
# Human Calpain 2/NS1 = target: T1, Human Calpain 2/NS1 (Homo sapiens, UniProt P17655); assay: Calpain continuous fluorescence (FRET) inhibition assay; assay type: biochemical; conditions: Column B; SensoLyte 520 FRET substrate, pH 7.5, 25C
# T1 sequence (P17655 1-700): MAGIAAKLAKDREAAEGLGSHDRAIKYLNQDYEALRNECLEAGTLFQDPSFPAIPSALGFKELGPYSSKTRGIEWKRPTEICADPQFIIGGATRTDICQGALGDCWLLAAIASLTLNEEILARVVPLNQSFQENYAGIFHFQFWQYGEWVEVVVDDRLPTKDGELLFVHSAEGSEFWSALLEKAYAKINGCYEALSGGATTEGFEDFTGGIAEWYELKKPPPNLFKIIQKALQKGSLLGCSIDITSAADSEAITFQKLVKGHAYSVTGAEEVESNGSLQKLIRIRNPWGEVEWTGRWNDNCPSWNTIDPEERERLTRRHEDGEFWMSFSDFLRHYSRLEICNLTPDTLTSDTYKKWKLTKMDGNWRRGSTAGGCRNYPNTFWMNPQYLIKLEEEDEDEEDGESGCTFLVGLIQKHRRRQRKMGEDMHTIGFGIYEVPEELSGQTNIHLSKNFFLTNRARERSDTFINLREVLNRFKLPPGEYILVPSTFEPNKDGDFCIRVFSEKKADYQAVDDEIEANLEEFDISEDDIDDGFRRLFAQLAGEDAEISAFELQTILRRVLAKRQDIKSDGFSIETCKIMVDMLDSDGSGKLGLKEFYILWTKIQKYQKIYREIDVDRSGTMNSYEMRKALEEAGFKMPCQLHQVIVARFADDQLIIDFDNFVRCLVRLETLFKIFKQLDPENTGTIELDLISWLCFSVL
# T1 sequence (P04632 1-268 partner): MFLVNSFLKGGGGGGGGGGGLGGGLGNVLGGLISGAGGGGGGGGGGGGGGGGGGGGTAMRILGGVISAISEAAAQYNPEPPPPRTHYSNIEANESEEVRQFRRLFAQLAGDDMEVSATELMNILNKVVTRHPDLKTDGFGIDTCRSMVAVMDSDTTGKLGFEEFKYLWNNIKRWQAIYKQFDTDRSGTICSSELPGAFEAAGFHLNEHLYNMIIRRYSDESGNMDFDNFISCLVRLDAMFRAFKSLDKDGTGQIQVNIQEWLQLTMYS
# Protocol: (§1) Calpain 1, 2, and 9 activity and inhibition thereof was assessed by means of a continuous fluorescence assay. The SensoLyte 520 Calpain substrate (Anaspec Inc.) was optimized for detecting calpain activity. This substrate contains an internally quenched 5-FAM/QXLTM 520 FRET pair. Calpains 1, 2, and 9 cleave the FRET substrate into two separate fragments resulting in an increase of 5-FAM fluorescence that is proportional to calpain activity
# (§2) Assays were typically setup in black 384-well plates using automated liquid handling as follows. Calpain assay base buffer typically contains 50 mM Tris, pH 7.5, 100 mM NaCl and 1 mM DTT. Inhibitors were serially diluted in DMSO and used to setup 2× mixtures with calpains in the aforementioned buffer. After incubation at ambient temperature (25C), the reaction was initiated by adding a 2× mix of the fluorescent peptide substrate and CaCl2) (required for in-situ calpain activation) in the same buffer. Reaction progress curve data were typically collected for 10 min using excitation/emission wavelengths of 490 nm/520 nm on SpectraMax i3x or the FLIPR-Tetra plate readers (Molecular Devices Inc.). Reaction rates were calculated from progress curve slopes typically over 1-5 min. Dose response curves (rate vs. log inhibitor concentration) were typically fit to a 4-parameter logistic function to extract IC50 values.
# Human Calpain 1/NS1 = target: T2, Human Calpain 1/NS1 (Homo sapiens, UniProt P07384); assay: as above; assay type: biochemical; conditions: Column A; SensoLyte 520 FRET substrate, pH 7.5, 25C
# T2 sequence (P07384 1-714): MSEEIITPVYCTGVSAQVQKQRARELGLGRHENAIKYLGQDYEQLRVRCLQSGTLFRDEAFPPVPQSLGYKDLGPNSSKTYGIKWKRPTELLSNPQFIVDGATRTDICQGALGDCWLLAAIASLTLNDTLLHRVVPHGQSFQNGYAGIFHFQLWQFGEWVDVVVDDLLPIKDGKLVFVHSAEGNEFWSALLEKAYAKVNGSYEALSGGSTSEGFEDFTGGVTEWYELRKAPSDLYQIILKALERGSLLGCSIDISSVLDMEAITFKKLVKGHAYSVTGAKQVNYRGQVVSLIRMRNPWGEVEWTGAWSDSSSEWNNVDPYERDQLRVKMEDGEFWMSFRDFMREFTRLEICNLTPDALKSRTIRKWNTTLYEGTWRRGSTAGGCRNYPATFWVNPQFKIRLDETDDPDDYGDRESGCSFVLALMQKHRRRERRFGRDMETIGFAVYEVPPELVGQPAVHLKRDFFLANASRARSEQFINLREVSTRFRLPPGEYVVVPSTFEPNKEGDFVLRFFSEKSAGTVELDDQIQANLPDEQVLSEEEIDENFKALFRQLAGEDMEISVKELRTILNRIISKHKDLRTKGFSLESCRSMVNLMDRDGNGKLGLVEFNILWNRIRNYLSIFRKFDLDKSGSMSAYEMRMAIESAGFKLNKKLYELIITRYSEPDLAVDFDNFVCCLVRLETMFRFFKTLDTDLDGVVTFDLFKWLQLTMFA
# T2 sequence (P04632 1-268 partner): T1 sequence (P04632 1-268 partner)
# Protocol: as §1, §2
# Human Calpain 9/NS1 = target: T3, Human Calpain 9/NS1 (Homo sapiens, UniProt O14815); assay: as above; assay type: biochemical; conditions: Column C; SensoLyte 520 FRET substrate, pH 7.5, 25C
# T3 sequence (O14815 1-690): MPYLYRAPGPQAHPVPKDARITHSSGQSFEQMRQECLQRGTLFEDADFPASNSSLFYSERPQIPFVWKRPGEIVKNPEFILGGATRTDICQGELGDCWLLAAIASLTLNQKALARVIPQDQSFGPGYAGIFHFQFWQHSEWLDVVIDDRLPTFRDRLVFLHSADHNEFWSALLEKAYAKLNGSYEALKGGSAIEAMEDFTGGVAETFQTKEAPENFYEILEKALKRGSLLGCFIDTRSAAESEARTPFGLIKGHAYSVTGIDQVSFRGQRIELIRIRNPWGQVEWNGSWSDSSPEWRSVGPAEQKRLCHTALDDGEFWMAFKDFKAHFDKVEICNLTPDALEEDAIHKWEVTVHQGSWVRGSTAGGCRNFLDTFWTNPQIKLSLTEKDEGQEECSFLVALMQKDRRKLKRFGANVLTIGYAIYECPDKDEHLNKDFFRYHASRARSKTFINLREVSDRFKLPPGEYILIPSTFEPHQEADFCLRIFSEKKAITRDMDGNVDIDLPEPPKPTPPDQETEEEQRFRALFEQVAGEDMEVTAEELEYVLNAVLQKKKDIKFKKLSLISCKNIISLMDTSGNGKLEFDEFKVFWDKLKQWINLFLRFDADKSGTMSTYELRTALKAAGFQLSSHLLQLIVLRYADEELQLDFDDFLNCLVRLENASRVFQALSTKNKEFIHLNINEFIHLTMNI
# T3 sequence (P04632 1-268 partner): T1 sequence (P04632 1-268 partner)
# Protocol: as §1, §2
# Human Cathepsin K = target: T4, Human Cathepsin K (Homo sapiens, UniProt P43235); assay: Cathepsin continuous fluorescence inhibition assay; assay type: biochemical; conditions: Column E; enzyme 10 nM, substrate 1 uM, pH 5.5, 30 minutes pre-incubation with inhibitor
# T4 construct: purchased
# T4 sequence (P43235 115-329): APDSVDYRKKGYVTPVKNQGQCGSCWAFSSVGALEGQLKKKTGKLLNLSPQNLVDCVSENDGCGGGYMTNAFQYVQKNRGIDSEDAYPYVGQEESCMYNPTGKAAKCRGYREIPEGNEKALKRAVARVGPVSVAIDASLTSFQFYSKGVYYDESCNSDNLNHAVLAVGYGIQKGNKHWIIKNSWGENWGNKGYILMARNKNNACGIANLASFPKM
# Protocol: (§3) Cathepsin activity and inhibition thereof was assessed by means of a continuous fluorescence assay. All assays were run in 384 well format and utilized peptide substrates that liberate fluorescence upon protease catalyzed cleavage. FLIPR plate readers (Molecular Devices Inc.) were used to monitor reactions and extract initial rates which were then fit (four parameter logistic function) to obtain IC50 values. All enzymes are human. All enzymes and reagents were obtained commercially and are summarized in Tables 1 and 2 below along with assay conditions.
# Human Cathepsin B = target: T5, Human Cathepsin B (Homo sapiens, UniProt P07858); assay: Cathepsin continuous fluorescence inhibition assay; assay type: biochemical; conditions: Column D; enzyme 25 nM, substrate 1 uM, pH 5.0, 30 minutes pre-incubation with inhibitor
# T5 construct: purchased
# Protocol: as §3
# Human Cathepsin S = target: T6, Human Cathepsin S (Homo sapiens, UniProt P25774); assay: Cathepsin continuous fluorescence inhibition assay; assay type: biochemical; conditions: Column F; enzyme 6 nM, substrate 1 uM, pH 4.5, 30 minutes pre-incubation with inhibitor
# T6 construct: purchased
# T6 sequence (P25774 115-331): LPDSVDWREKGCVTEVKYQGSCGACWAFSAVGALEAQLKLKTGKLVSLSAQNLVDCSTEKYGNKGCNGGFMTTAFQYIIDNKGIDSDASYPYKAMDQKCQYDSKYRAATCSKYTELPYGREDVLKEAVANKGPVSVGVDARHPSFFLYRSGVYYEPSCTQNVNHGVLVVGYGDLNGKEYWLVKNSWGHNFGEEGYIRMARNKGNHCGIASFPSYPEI
# Protocol: as §3
# Human Cathepsin L = target: T7, Human Cathepsin L (Homo sapiens, UniProt P07711); assay: Cathepsin continuous fluorescence inhibition assay; assay type: biochemical; conditions: Column G; enzyme 0.025 nM, substrate 1 uM, pH 6.0, 30 minutes pre-incubation with inhibitor
# T7 construct: purchased
# T7 sequence (P07711 114-333): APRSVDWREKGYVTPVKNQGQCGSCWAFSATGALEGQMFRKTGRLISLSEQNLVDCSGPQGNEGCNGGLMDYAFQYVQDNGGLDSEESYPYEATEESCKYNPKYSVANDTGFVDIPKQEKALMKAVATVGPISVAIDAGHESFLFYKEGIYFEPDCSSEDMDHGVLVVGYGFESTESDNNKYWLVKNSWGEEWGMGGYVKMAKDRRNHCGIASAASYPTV
# Protocol: as §3
SMILES,IC50 (Human Calpain 2/NS1),IC50 (Human Calpain 1/NS1),IC50 (Human Calpain 9/NS1),IC50 (Human Cathepsin K),IC50 (Human Cathepsin B),IC50 (Human Cathepsin S),IC50 (Human Cathepsin L),"ring closure, yield of all isomers [1]"
CC(C)[C@@H]1NC(=O)CC(Sc2ccccc2)[C@@H](NC(=O)OC(C)(C)C)COC(=O)[C@H](Cc2ccc(O[Si](C)(C)C(C)(C)C)cc2)NC1=O (stereo partly drawn),,,,,,,,39.4%
"CC(C)[C@@H]1NC(=O)/C=C/[C@@H](NC(=O)[C@H](C)NC(=O)OC(C)(C)C)COC(=O)[C@H](Cc2ccc(O)cc2)NC1=O [Compound 13, tert-butyl ((s)-1-(((3S,6S,11R,E)-3-(4-hydroxybenzyl)-6-isopropyl-2,5,8-trioxo-1-oxa-4,7-diazacyclododec-9-en-11-yl)amino)-1-oxopropan-2-yl)carbamate]",> 10 µM,> 10 µM,> 10 µM,< 3 µM,< 3 µM,< 3 µM,< 3 µM,
"CC(C)[C@@H]1NC(=O)/C=C/[C@@H](NC(=O)CNC(=O)[C@H](Cc2ccc(O)cc2)NC(=O)OC(C)(C)C)COC(=O)[C@H](Cc2ccc(O)cc2)NC1=O [Compound 8, tert-butyl ((s)-1-((2-(((3S,6S,11R,E)-3-(4-hydroxybenzyl)-6-isopropyl-2,5,8-trioxo-1-oxa-4,7-diazacyclododec-9-en-11-yl)amino)-2-oxoethyl)amino)-3-(4-hydroxyphenyl)-1-oxopropan-2-yl)carbamate]",> 10 µM,> 10 µM,> 10 µM,< 3 µM,< 3 µM,< 3 µM,< 3 µM,
"CC(C)[C@@H]1NC(=O)/C=C/[C@@H](NC(=O)OC(C)(C)C)COC(=O)[C@H](Cc2ccc(O)cc2)NC1=O [Compound 1, Tert-butyl ((3S,6S,11R,E)-3-(4-Hydroxybenzyl)-6-isopropyl-2,5,8-trioxo-1-oxa-4,7-Diazacyclododec-9-en-11-yl)carbamate]",> 10 µM,> 10 µM,> 10 µM,< 3 µM,< 3 µM,< 3 µM,< 3 µM,

# Continued, in another order:
IC50 (Human Calpain 2/NS1),IC50 (Human Calpain 1/NS1),IC50 (Human Calpain 9/NS1),IC50 (Human Cathepsin K),IC50 (Human Cathepsin B),IC50 (Human Cathepsin S),IC50 (Human Cathepsin L),SMILES,"ring closure, yield of all isomers [1]"
> 10 µM,> 10 µM,> 10 µM,< 3 µM,> 10 µM,3 to 10 µM,3 to 10 µM,"CC(C)[C@@H]1NC(=O)/C=C/[C@@H](N)COC(=O)[C@H](Cc2ccc(O[Si](C)(C)C(C)(C)C)cc2)NC1=O [Compound 4, (3S,6S,11R,E)-11-amino-3-(4-((tert-butyldimethylsilyl)oxy)benzyl)-6-isopropyl-1-oxa-4,7-diazacyclododec-9-ene-2,5,8-trione]",
< 3 µM,3 to 10 µM,> 10 µM,< 3 µM,< 3 µM,< 3 µM,< 3 µM,"CC(C)[C@@H]1NC(=O)/C=C/[C@@H](NC(=O)[C@@H](NC(=O)OCc2ccccc2)C(C)C)COC(=O)[C@H](Cc2ccc(O)cc2)NC1=O [Compound 9, Benzyl ((s)-1-(((3S,6S,11R,E)-3-(4-hydroxybenzyl)-6-isopropyl-2,5,8-trioxo-1-oxa-4,7-diazacyclododec-9-en-11-yl)amino)-3-methyl-1-oxobutan-2-yl)carbamate]",
